Results taken from PMC12714728, “VHH antibody loop guides design of a synthetic macrocyclic peptide that potently blocks influenza virus membrane fusion” (npj Viruses, 2025).
Starred links: 1 amine or outer side, 2 acyl side, 3 side chain; linkers in the order of their positions; H or OH if unused. Positions of bridges follow the written chain, without caps; N, C: chain ends. Residues, ends and D or L forms follow the SMILES beside them. Suc = O=C(CCC(=O)[*:2])[*:1]

Columns and labels:
[1] = tested on: H1/Cal HA (A/California/07/2009 (H1N1)); assay type: binding, influenza A virus
[2] = tested on: group 1 H1/Cal, H1/NCa, and H5/Viet HAs; assay type: binding, influenza A virus; conditions: read-out: IC50 in AlphaLISA (range over HAs)
[3] = tested on: H5/Viet HA (A/Vietnam/1203/2004 (H5N1)); assay type: binding, influenza A virus
[4] = tested on: H1/NCa HA (A/New Caledonia/20/1999 (H1N1)); assay type: binding, influenza A virus
[5] = target: group 1 H1/Cal, H1/NCa, and H5/Viet HAs; assay type: binding, influenza A virus; conditions: read-out: KD by SPR (range over HAs)
[6] = tested on: H1N1 A/Brisbane/59/2007 (H1/Bri) HA; assay type: biochemical, influenza A virus; conditions: pH 5.25
[7] = In vitro cell permeability assay; conditions: for Papp B→A at 120 min, 5 µM: LLC-Parent, basolateral to apical
P-gp (MDR1) = assay: In vitro cell permeability / P-gp substrate assay; conditions: pig; for Papp A→B at 120 min, 5 µM: LLC-MDR1, apical to basolateral; for Papp B→A at 120 min, 5 µM: LLC-MDR1, basolateral to apical
[8] = tested on: HAs from group 2 and influenza B viruses; assay type: binding, influenza A and B viruses

SMILES	IC50 [1]	IC50 [2]	IC50 [3]	IC50 [4]	Kd [5]	IC50 [6]	recovery ([7]; LLC-PK1)	Papp A→B at 120 min, 5 µM ([7]; pig, LLC-PK1, pH 7.4)	Papp B→A at 120 min, 5 µM ([7]; pig, LLC-PK1, pH 7.4, Papp BA, no inhibitor)	Papp B→A at 120 min, 5 µM ([7]; pig, LLC-PK1, pH 7.4, with 5 µM GF120918 (elacridar), Papp BA, + 5 µM GF120918)	Papp A→B at 120 min, 5 µM (P-gp (MDR1); LLC-PK1, pH 7.4, Papp AB, no inhibitor)	Papp B→A at 120 min, 5 µM (P-gp (MDR1); LLC-PK1, pH 7.4, Papp BA, no inhibitor)	Papp A→B at 120 min, 5 µM (P-gp (MDR1); LLC-PK1, pH 7.4, with 5 µM GF120918 (elacridar), Papp AB, + 5 µM GF120918)	Papp B→A at 120 min, 5 µM (P-gp (MDR1); LLC-PK1, pH 7.4, with 5 µM GF120918 (elacridar), Papp BA, + 5 µM GF120918)	Binding to HAs of group 2 and influenza B viruses [8]
CSCC[C@@H]1NC(=O)CNC(=O)CNC(=O)[C@H](C)NC(=O)[C@H](C(C)C)NC(=O)CNC(=O)[C@H](CC(C)C)NC(=O)[C@@H]2CCCN2C(=O)[C@H](CC(=O)O)NC(=O)[C@H](CCCNC(=N)N)NC(=O)[C@H](Cc2ccc(O)cc2)NC(=O)[C@H](CC(C)C)NC(=O)[C@@H](NC(=O)CCC(=O)O)CSSC[C@@H](C(N)=O)NC(=O)CNC1=O [CP8]	0.11 µM	0.11 to 1.55 µM	1.55 ± 0.29 µM	0.16 ± 0.02 µM	0.32 to 0.33 µM	0.54 ± 0.01 µM									
CSCC[C@@H]1NC(=O)CNC(=O)CNC(=O)[C@H](C)NC(=O)[C@H](C(C)C)NC(=O)CNC(=O)[C@H](CC(C)C)NC(=O)[C@@H]2CCCN2C(=O)[C@H](CC(=O)O)NC(=O)[C@H](CCC(=O)O)NC(=O)[C@H](Cc2ccc(O)cc2)NC(=O)[C@H](CC(C)C)NC(=O)[C@@H](NC(=O)CCC(=O)O)CSSC[C@@H](C(N)=O)NC(=O)CNC1=O [CP9]	0.3 ± 0.03 µM		5.59 ± 0.21 µM	0.7 ± 0.02 µM		0.23 ± 0.02 µM									
CSCC[C@@H]1NC(=O)[C@H](CCC(=O)O)NC(=O)CNC(=O)[C@H](C)NC(=O)[C@H](C(C)C)NC(=O)CNC(=O)[C@H](CC(C)C)NC(=O)[C@@H]2CCCN2C(=O)[C@H](CC(=O)O)NC(=O)[C@H](CCCNC(=N)N)NC(=O)[C@H](Cc2ccc(O)cc2)NC(=O)[C@H](CC(C)C)NC(=O)[C@@H](NC(=O)CCC(=O)O)CSSC[C@@H](C(N)=O)NC(=O)CNC1=O [CP10] (Suc-CLYRDPLGVAGEMGC-NH2; disulfide 1-15)	0.61 ± 0.08 µM		7.61 ± 1.56 µM	2.93 ± 0.32 µM		0.46 ± 0.04 µM									
CSCC[C@@H]1NC(=O)CNC(=O)CNC(=O)[C@H](C)NC(=O)[C@H](C(C)C)NC(=O)CNC(=O)[C@H](CC(C)C)NC(=O)[C@@H]2CCCN2C(=O)[C@H](CC(=O)O)NC(=O)[C@H](CCCNC(=N)N)NC(=O)[C@H](Cc2ccc(O)cc2)NC(=O)[C@@H](NC(=O)CCC(=O)O)CSSC[C@@H](C(N)=O)NC1=O [CP11]	4.1 ± 0.76 µM		7.78 ± 2.63 µM	4.99 ± 0.6 µM		8.52 ± 0.39 µM									
CSCC[C@@H]1NC(=O)CNC(=O)CNC(=O)[C@H](C)NC(=O)[C@H](C(C)C)NC(=O)CNC(=O)[C@H](CC(C)C)NC(=O)[C@@H]2CCCN2C(=O)[C@H](CC(=O)O)NC(=O)[C@H](CCC(=O)O)NC(=O)[C@H](Cc2ccc(O)cc2)NC(=O)[C@@H](NC(=O)CCC(=O)O)CSSC[C@@H](C(N)=O)NC1=O [CP12]	6.38 ± 0.17 µM		28.8 ± 10.2 µM	4.95 ± 0.38 µM											
CSCC[C@@H]1NC(=O)[C@H](CCC(=O)O)NC(=O)CNC(=O)[C@H](C)NC(=O)[C@H](C(C)C)NC(=O)CNC(=O)[C@H](CC(C)C)NC(=O)[C@@H]2CCCN2C(=O)[C@H](CC(=O)O)NC(=O)[C@H](CCCNC(=N)N)NC(=O)[C@H](Cc2ccc(O)cc2)NC(=O)[C@@H](NC(=O)CCC(=O)O)CSSC[C@@H](C(N)=O)NC1=O [CP13]	11.8 ± 2.61 µM		39.8 ± 12.2 µM	12.79 ± 0.09 µM		39.4 ± 8.32 µM									
CSCC[C@@H]1NC(=O)CNC(=O)CNC(=O)[C@H](C)NC(=O)[C@H](C(C)C)NC(=O)CNC(=O)[C@H](CC(C)C)NC(=O)[C@@H]2CCCN2C(=O)[C@H](CC(=O)O)NC(=O)[C@H](CCC(=O)O)NC(=O)[C@H](Cc2ccc(O)cc2)NC(=O)[C@H](CC(C)C)NC(=O)CNC1=O [CP14]	1.72 ± 0.24 µM		10 ± 0.91 µM	1.24 ± 0.15 µM		1.24 ± 0.03 µM	96.5%	0.11 ×10⁻⁶ cm/s	0.12 ± 0.01 ×10⁻⁶ cm/s	0.11 ± 0.01 ×10⁻⁶ cm/s	0.26 ± 0.04 ×10⁻⁶ cm/s	0.32 ± 0.05 ×10⁻⁶ cm/s	0.25 ± 0.01 ×10⁻⁶ cm/s	0.33 ± 0.05 ×10⁻⁶ cm/s	
CSCC[C@H](NC(=O)CNC(=O)CNC(=O)[C@H](C)NC(=O)[C@@H](NC(=O)CNC(=O)[C@H](CC(C)C)NC(=O)[C@@H]1CCCN1C(=O)[C@H](CC(=O)O)NC(=O)[C@H](CCCNC(=N)N)NC(=O)[C@H](Cc1ccc(O)cc1)NC(=O)[C@H](CC(C)C)NC(=O)[C@H](CO)NC(=O)[C@@H](NC(=O)CCC(=O)O)C(C)C)C(C)C)C(=O)NCC(=O)N[C@H](C(=O)N[C@@H](Cc1ccc(O)cc1)C(N)=O)C(C)C [LP1]	11.5 ± 2.5 µM	11 to 47 µM	47.9 ± 3.77 µM	22.9 ± 4.14 µM	3 to 7 µM										no binding was observed
